Measured values reported in the supplement of paper PMC10307832.

Experiments:
Assay in all cases: relative viability (nuclei count vs DMSO), 5 days (fraction); higher = more cells survive
[1] = tested on: NCI-H1734
Procedure, shortened: (§1)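 Lung cancer cell lines, seeded in 1536-well plates, were treated the following day by pin tool with a single drug or with five library-drug doses (not always all listed) in √10 steps on top of a fixed anchor-drug dose. Cells were fixed and nuclei stained in one step after 5 days, and nuclei were counted. Relative viability is the nuclei count for treated wells divided by that for vehicle wells, reported as medians of duplicate plates.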

[2] = tested on: LU99A
Procedure, shortened: as §1

[3] = tested on: NCI-H460
Procedure, shortened: as §1

[4] = tested on: NCI-H2228
Procedure, shortened: as §1

[5] = tested on: PC-3 [JPC-3]
Procedure, shortened: as §1

[6] = tested on: LOU-NH91
Procedure, shortened: as §1

[7] = tested on: NCI-H3122
Procedure, shortened: as §1

[8] = tested on: CAL-12T
Procedure, shortened: as §1

[9] = tested on: RERF-LC-KJ
Procedure, shortened: as §1

[10] = tested on: NCI-H2405
Procedure, shortened: as §1

[11] = tested on: NCI-H1793
Procedure, shortened: as §1

[12] = tested on: LC-2-ad
Procedure, shortened: as §1

[13] = tested on: NCI-H1755
Procedure, shortened: as §1

[14] = tested on: NCI-H2087
Procedure, shortened: as §1

[15] = tested on: NCI-H1651
Procedure, shortened: as §1

[16] = tested on: HCC-78
Procedure, shortened: as §1

[17] = tested on: ChaGo-K-1
Procedure, shortened: as §1

[18] = tested on: ABC-1
Procedure, shortened: as §1

[19] = tested on: NCI-H1944
Procedure, shortened: as §1

[20] = tested on: NCI-H1395
Procedure, shortened: as §1

[21] = tested on: UMC-11
Procedure, shortened: as §1

[22] = tested on: NCI-H2170
Procedure, shortened: as §1

[23] = tested on: HCC-366
Procedure, shortened: as §1

SMILES: C=C1C(=O)O[C@@H](CCCCCCCC)[C@@H]1C(=O)O [C-75] + N=C(N)NC(=N)NCCc1ccccc1 [Phenformin] (partner 250 µM)
- relative viability ([1]; first compound 0.08 µM): 0.413
- relative viability ([1]; first compound 0.253 µM): 0.427
- relative viability ([1]; first compound 0.8 µM): 0.356
- relative viability ([1]; first compound 2.53 µM): 0.286
- relative viability ([1]; first compound 8 µM): 0.283
- relative viability ([2]; first compound 0.08 µM): 0.848
- relative viability ([2]; first compound 0.253 µM): 0.863
- relative viability ([2]; first compound 0.8 µM): 0.816
- relative viability ([2]; first compound 2.53 µM): 0.749
- relative viability ([2]; first compound 8 µM): 0.641
- relative viability ([3]; first compound 0.08 µM): 0.511
- relative viability ([3]; first compound 0.253 µM): 0.534
- relative viability ([3]; first compound 0.8 µM): 0.501
- relative viability ([3]; first compound 8 µM): 0.516
- relative viability ([4]; first compound 0.08 µM): 0.294
- relative viability ([4]; first compound 0.253 µM): 0.304
- relative viability ([4]; first compound 0.8 µM): 0.33
- relative viability ([4]; first compound 2.53 µM): 0.244
- relative viability ([4]; first compound 8 µM): 0.277
- relative viability ([5]; first compound 0.08 µM): 0.457
- relative viability ([5]; first compound 0.253 µM): 0.468
- relative viability ([5]; first compound 0.8 µM): 0.47
- relative viability ([5]; first compound 2.53 µM): 0.48
- relative viability ([5]; first compound 8 µM): 0.503
- relative viability ([6]; first compound 0.08 µM): 0.715
- relative viability ([6]; first compound 0.253 µM): 0.741
- relative viability ([6]; first compound 0.8 µM): 0.612
- relative viability ([6]; first compound 2.53 µM): 0.532
- relative viability ([6]; first compound 8 µM): 0.749
- relative viability ([7]; first compound 0.08 µM): 0.405
- relative viability ([7]; first compound 0.253 µM): 0.406
- relative viability ([7]; first compound 0.8 µM): 0.384
- relative viability ([7]; first compound 8 µM): 0.408
- relative viability ([8]; first compound 0.08 µM): 0.545
- relative viability ([8]; first compound 0.253 µM): 0.746
- relative viability ([8]; first compound 0.8 µM): 0.567
- relative viability ([8]; first compound 2.53 µM): 0.556
- relative viability ([8]; first compound 8 µM): 0.515
- relative viability ([9]; first compound 0.08 µM): 0.427
- relative viability ([9]; first compound 0.253 µM): 0.452
- relative viability ([9]; first compound 0.8 µM): 0.398
- relative viability ([9]; first compound 2.53 µM): 0.469
- relative viability ([9]; first compound 8 µM): 0.405
- relative viability ([10]; first compound 0.08 µM): 0.387
- relative viability ([10]; first compound 0.253 µM): 0.331
- relative viability ([10]; first compound 0.8 µM): 0.405
- relative viability ([10]; first compound 2.53 µM): 0.368
- relative viability ([10]; first compound 8 µM): 0.45
- relative viability ([11]; first compound 0.08 µM): 0.365
- relative viability ([11]; first compound 0.253 µM): 0.362
- relative viability ([11]; first compound 0.8 µM): 0.287
- relative viability ([11]; first compound 2.53 µM): 0.29
- relative viability ([11]; first compound 8 µM): 0.486
- relative viability ([12]; first compound 0.08 µM): 0.561
- relative viability ([12]; first compound 0.253 µM): 0.566
- relative viability ([12]; first compound 0.8 µM): 0.544
- relative viability ([12]; first compound 2.53 µM): 0.483
- relative viability ([12]; first compound 8 µM): 0.54
- relative viability ([13]; first compound 0.08 µM): 0.633
- relative viability ([13]; first compound 0.253 µM): 0.587
- relative viability ([13]; first compound 0.8 µM): 0.577
- relative viability ([13]; first compound 2.53 µM): 0.529
- relative viability ([13]; first compound 8 µM): 0.607
- relative viability ([14]; first compound 0.08 µM): 0.409
- relative viability ([14]; first compound 0.253 µM): 0.597
- relative viability ([14]; first compound 0.8 µM): 0.428
- relative viability ([14]; first compound 2.53 µM): 0.279
- relative viability ([14]; first compound 8 µM): 0.48
- relative viability ([15]; first compound 0.08 µM): 0.35
- relative viability ([15]; first compound 0.253 µM): 0.315
- relative viability ([15]; first compound 0.8 µM): 0.354
- relative viability ([15]; first compound 2.53 µM): 0.306
- relative viability ([15]; first compound 8 µM): 0.291
- relative viability ([16]; first compound 0.08 µM): 0.844
- relative viability ([16]; first compound 0.253 µM): 0.849
- relative viability ([16]; first compound 0.8 µM): 0.544
- relative viability ([16]; first compound 2.53 µM): 0.595
- relative viability ([16]; first compound 8 µM): 0.625
- relative viability ([17]; first compound 0.08 µM): 0.461
- relative viability ([17]; first compound 0.253 µM): 0.538
- relative viability ([17]; first compound 0.8 µM): 0.453
- relative viability ([17]; first compound 2.53 µM): 0.414
- relative viability ([17]; first compound 8 µM): 0.494
- relative viability ([18]; first compound 0.08 µM): 0.209
- relative viability ([18]; first compound 0.253 µM): 0.289
- relative viability ([18]; first compound 0.8 µM): 0.231
- relative viability ([18]; first compound 2.53 µM): 0.19
- relative viability ([18]; first compound 8 µM): 0.199
- relative viability ([19]; first compound 0.08 µM): 0.21
- relative viability ([19]; first compound 0.253 µM): 0.163
- relative viability ([19]; first compound 0.8 µM): 0.179
- relative viability ([19]; first compound 8 µM): 0.187
- relative viability ([20]; first compound 0.08 µM): 0.452
- relative viability ([20]; first compound 0.253 µM): 0.454
- relative viability ([20]; first compound 0.8 µM): 0.435
- relative viability ([20]; first compound 2.53 µM): 0.45
- relative viability ([20]; first compound 8 µM): 0.514
- relative viability ([21]; first compound 0.08 µM): 0.335
- relative viability ([21]; first compound 0.253 µM): 0.346
- relative viability ([21]; first compound 0.8 µM): 0.325
- relative viability ([21]; first compound 2.53 µM): 0.278
- relative viability ([21]; first compound 8 µM): 0.272
- relative viability ([22]; first compound 0.08 µM): 0.469
- relative viability ([22]; first compound 0.253 µM): 0.453
- relative viability ([22]; first compound 0.8 µM): 0.419
- relative viability ([22]; first compound 2.53 µM): 0.404
- relative viability ([22]; first compound 8 µM): 0.481
- relative viability ([23]; first compound 0.08 µM): 0.586
- relative viability ([23]; first compound 0.253 µM): 0.634
- relative viability ([23]; first compound 0.8 µM): 0.61
- relative viability ([23]; first compound 8 µM): 0.571
